Test results: paper PMC5502072 (Investigational New Drugs, 2017)
Entries after “also recorded” stand apart in the source; their conditions may differ. Read-outs that look alike come from different tables or passages of the source.

Assays:
several tumour types = conditions: cited from earlier work
advanced solid tumours = assay: Preliminary antitumour efficacy (RECIST v1.1); format: in vivo, human
Protocol: Tumour assessments were performed according to Response Evaluation Criteria in Solid Tumors version 1.1 (RECIST v1.1) at baseline, on day 21 of the first treatment cycle, then every 6 weeks after the start of treatment for 12 weeks, and thereafter every 12 weeks (±1 week) until discontinuation of study treatment or withdrawal of consent.

advanced solid tumors = conditions: all responders had FGFR2 or FGFR3 translocations; cited from earlier work
[1] = system: lung squamous cell carcinoma; urothelial carcinoma with FGFR3 alterations; conditions: cited from earlier work
[2] = one patient with FGFR1-amplified squamous NSCLC, 80 mg bid
[3] = previously treated advanced/metastatic UC with FGFR3 alterations

Compound: AZD4547
- Patients with stable disease (several tumour types; 4/21 additional patients): 19%
- Best response (several tumour types; [2]): partial response
- Duration of PR (several tumour types; [2]): ≥ 12 weeks
- Patients with stable disease (≥4 weeks' duration) (advanced solid tumours; Part A): 70%
- Patients with stable disease ≥4 weeks (advanced solid tumours; Part A): 21/30
- Range of percentage change in the sum of the diameters of target lesions (advanced solid tumours; Part A): –6.8% to 48.9
- Median percentage change in the sum of the diameters of target lesions (advanced solid tumours; Part A (25/30 patients)): 5.9%
- Patients with stable disease (≥4 weeks' duration) (advanced solid tumours; Part A, 40 mg bid): 3 n
- Patients with stable disease (≥4 weeks' duration) (advanced solid tumours; Part A, 80 mg bid): 3 n
- Patients with stable disease (≥4 weeks' duration) (advanced solid tumours; Part A, 120 mg bid): 5 n
- Patients with stable disease (≥4 weeks' duration) (advanced solid tumours; Part A, 160 mg qd): 10 n
- Range of percentage change in the sum of the diameters of target lesions (advanced solid tumours; Part B): –16.3% to 23.4
- Median percentage change in the sum of the diameters of target lesions (advanced solid tumours; Part B (all patients)): 3.0%
- Patients continuing to experience stable disease at 10 weeks (advanced solid tumours; Part B, 80 mg bid): 25.0%
- Patients with stable disease ≥10 weeks (advanced solid tumours; Part B, 80 mg bid): 1/4
- Complete responses and partial responses (RECIST v1.1) (advanced solid tumours; Parts A and B): No complete or partial responses were observed; also recorded: not observed

Compound: COc1cc(OC)cc(N(CCNC(C)C)c2ccc3ncc(-c4cnn(C)c4)nc3c2)c1 [JNJ-42756493]
- Patients with PR (advanced solid tumors): 4/23

Compound: CCN1CCN(c2ccc(Nc3cc(N(C)C(=O)Nc4c(Cl)c(OC)cc(OC)c4Cl)ncn3)cc2)CC1 [BGJ398]
- Patients with PR ([1]; lung squamous cell carcinoma, selected by FGFR amplification status): 2/17
- Complete response [1, 3]: one unconfirmed complete response
- Patients with PR [1, 3]: 8/25
